Results as given in article PMC4467139, “Garcinol sensitizes human head and neck carcinoma to cisplatin in a xenograft mouse model despite downregulation of proliferative biomarkers” (Oncotarget, 2015).
pIC50: −log10 of the molar value. Read-outs that look alike come from different tables or passages of the source. Peptide text beside a SMILES is read from it. * marks the point of attachment. Cbz = O=C(OCc1ccccc1)*; CH2F = FC*

Legend:
[1] = system: PARP cleavage in CAL27 cells; assay: Western blot of PARP cleavage; type: cell-based, human; conditions: Z-VAD-fmk 20 μM together with 15 μM garcinol and 5 μM cisplatin, 48 h
Protocol: Vehicle or drug-treated whole-cell extracts were lysed in lysis buffer [250 mM NaCl, 20 mM HEPES, 2 mM EDTA (pH 8.0), 0.5 mM EGTA, 0.1% Triton X-100, 1.5 μg/mL aprotinin, 1.5 μg/mL leupeptin, 1 mM phenylmethylsulfonylfluoride (PMSF), and 1.5 mM NaVO4]. Lysates were then spun at 13,300 rpm for 10 min to remove insoluble material and resolved on a 10% SDS gel. After electrophoresis, the proteins were electrotransferred to a nitrocellulose membrane (Bio-Rad), blocked with Blocking One (Nacalai Tesque, Inc.), and probed with antibodies of interest overnight at 4 °C. The blot was washed with TBS with 0.1% Tween-20, exposed to HRP-conjugated secondary antibodies for 1 h, and finally examined by chemiluminescence using Western Bright Sirius HRP substrate (Advansta).
Supplementary Figure 2: Z-VAD-fmk abrogates the garcinol-induced caspase-3 activation. CAL27 cells (5 × 10^5 cells/mL) were treated with 15 μM garcinol and/or 5 μM cisplatin for 48 h in the absence or presence of 20 μM Z-VAD-fmk, whole-cell extracts were prepared, separated by SDS-PAGE, and subjected to western blot against PARP antibody. The same blot was stripped and reprobed with β-actin antibody to verify equal protein loading.
(also on this page, place not known: www.impactjournals.com/oncotarget/ Oncotarget, Materials 2014 Supplementary Z-V AD-fmk 10 5 Z-V AD-fmk,) […]

[2] = system: CAL27 xenografts; assay: HNSCC xenograft mouse model, tumor volume; type: in vivo, athymic nu/nu female mice; conditions: 4 weeks, garcinol 0.5 mg/kg i.p. five times/week, cisplatin 2 mg/kg i.p. twice weekly
Protocol: (§1) All procedures involving animals were reviewed and approved by NUS Institutional Animal Care and Use Committee. Six-week old athymic nu/nu female mice (Animal Resource Centre, Australia) were implanted subcutaneously in the right flank with CAL27 cells (3 × 10^6 cells/100 μL saline). When tumors have reached 0.25 cm in diameter, the mice were randomized into the following treatment groups (n = 5/group): (I) untreated control (0.1% DMSO, 100 μL daily); (II) garcinol (0.5 mg/kg body weight, suspended in 0.1% DMSO, intraperitoneal [i.p.] injection, five times/week); (III) cisplatin alone (2 mg/kg body weight, suspended in 0.1% DMSO, i.p. injection, twice/week); and (IV) combination (garcinol, 0.5 mg/kg body weight, i.p. injection, five times/week and cisplatin, 2 mg/kg body weight, i.p. injection, twice/week). Therapy was continued for 4 weeks, and the animals were euthanized 24 h after the last dose. Primary tumors were excised and the final tumor volume was calculated using the formula V = L × (W)^2/2 where L is the length and W is the width. Half of the tumor tissue was fixed in formalin and embedded in paraffin for immunohistochemistry (IHC) analysis. The other half was snap frozen in liquid nitrogen and stored at −80°C.

[3] = system: MDA686LN cells; assay: MTT cell viability assay; type: cell-based; conditions: Homo sapiens, 72 h
Protocol: (§2) The inhibitory effect of garcinol against HNSCC cell growth was determined by the MTT dye uptake method as described previously. Briefly, the cells (5 × 10^4 cells/mL) were incubated in triplicate in a 96-well plate in the presence or absence of different concentrations of garcinol in a final volume of 0.2 mL for indicated time intervals at 37 °C. Thereafter, 20 μL MTT solution (5 mg/mL in PBS) was added to each well. After a 2 h incubation at 37°C, 0.1 mL lysis buffer (20% SDS, 50% dimethylformamide) was added after removal of the medium, incubation was continued at 37°C for 1 h, and then the optical density (OD) at 570 nm was measured by the Safire2™ microplate reader (Tecan).

[4] = system: UMSCC1 cells; assay: MTT cell viability assay; type: cell-based; conditions: Homo sapiens, UMSCC1, 72 h
Protocol: as §2

[5] = system: CAL27 cells; assay: MTT cell viability assay; type: cell-based; conditions: Homo sapiens, CAL-27, CAL27, 72 h
Protocol: as §2, with “(Tecan). […]” for “(Tecan).”
www.impactjournals.com/oncotarget/ Oncotarget, Supplementary Materials 2015 […]
Supplementary Figure 1: (A) Garcinol augments the cytotoxic effect of cisplatin in HNSCC cells. CAL27 cells (1 × 10^4 cells/well) were exposed for 48 h to different concentrations of garcinol and cisplatin, and their combination and then subjected to MTT assay to analyze the viability of tumor cells. (B) Assessment on the type of combination relationship was done using the method developed by Chou-Talalay multiple drug effect equation. The degree of synergy was assessed based on CI values, where CI values of > 1.0 implies antagonism, 1.0 implies additive and < 1.0 implies synergistic effect relationships. […]

[6] = system: NF-κB-dependent reporter gene expression in MDA686Tu cells; assay: NF-κB luciferase reporter assay; type: cell-based, human; conditions: 12 h
Protocol: MDA686Tu cells (1 × 10^4 cells/well) in 96-well were transfected of plasmid with NF-κB responsive […] elements linked to a luciferase reporter gene using lipofectamine® 2000. After transfection for 48 h, indicated concentrations of garcinol were added into the wells for 12 h. Luciferase activity was determined using Bright-Glo™ luciferase assay kit from Promega.

[7] = Pharmacokinetics study of garcinol in mice; type: in vivo; conditions: nude, ip, mouse serum; for AUC: read-out: area under the serum concentration-time curve (AUC) at 8 h; for Cmax: read-out: peak serum concentration (Cmax); for Tmax: read-out: time of peak serum concentration post-dose
Protocol: Pharmacokinetics of garcinol was conducted in nude mice by i.p. injection at dose of 0.5 mg/kg or 2 mg/kg. The mice were allowed food and water ad libitum before pharmacokinetics experiment. About 150 μL of blood was taken from facial vein of mice at 10 min, 30 min, 1, 2, 4, 6, and 8 h post-dose. After centrifugation of blood samples at 14,000 rpm at 4°C for 10 min, mouse sera (the supernatant) were transferred into Eppendorf tube. 10 μL of each serum was processed by adding 3-folds excess of acetonitrile-containing isogarcinol, the internal standard followed by vortexing for 1 min. The tube was then centrifuged at 14,000 rpm at 4°C for 10 min. Then 30 μL of the supernatants were transferred into glass inserts (250 μL) with 70 μL of 10 mM ammonia acetate solution. 50 μL of processed serum samples were injected into LC-MS/MS which was carried out under negative electrospray ionization (ESI) and multiple reaction monitoring (MRM) mode. […] The daughter ion monitored for garcinol and isogarcinol was 409 and 335, respectively. SCIEX Analyst software (version 1.4.2) was used for data acquisition and analysis.

[8] = Body weight during xenograft experiment; type: in vivo, athymic nu/nu female mice; conditions: four week treatment; garcinol 0.5 mg/kg i.p. five times/week, alone or with cisplatin 2 mg/kg i.p. twice weekly
Protocol: as §1

| Compound | effect on increased PARP cleavage [1] | reduction of tumor volume [2] | pIC50 [3] | pIC50 [4] | pIC50 [5] | NF-κB-dependent reporter gene expression [6] | AUC ([7]; 0.5 mg/kg i.p.) | Cmax ([7]; 0.5 mg/kg i.p.) | Tmax ([7]; 0.5 mg/kg i.p.) | AUC ([7]; 2 mg/kg i.p.) | Cmax ([7]; 2 mg/kg i.p.) | Tmax ([7]; 2 mg/kg i.p.) | body weight of the animals [8] |
| --- | --- | --- | --- | --- | --- | --- | --- | --- | --- | --- | --- | --- | --- |
| COC(=O)C[C@H](NC(=O)[C@H](C)NC(=O)[C@@H](NC(=O)OCc1ccccc1)C(C)C)C(=O)CF [Z-VAD-fmk] (Cbz-Val-Ala-Asp(OMe)-CH2F) | completely blocked |  |  |  |  |  |  |  |  |  |  |  |  |
| N.N.[Cl][Pt][Cl] [cisplatin, cis-dichloro-diammineplatinum (II)] |  | 50% |  |  |  |  |  |  |  |  |  |  |  |
| C=C(C)[C@@H](CC=C(C)C)C[C@@]12C[C@@H](CC=C(C)C)C(C)(C)[C@@](CC=C(C)C)(C(=O)C(C(=O)c3ccc(O)c(O)c3)=C1O)C2=O [garcinol] |  | 50% | 4.86 | 4.94 | 4.83 | significantly abrogate | 4.3 µM·h | 1.83 µM | 30 min | 16.9 µM·h | 6.64 µM | 30 min | no significant loss of body weight |
